Data: paper PMC10141580, “Cyclic Dichalcogenides Extend the Reach of Bioreductive Prodrugs to Harness Thiol/Disulfide Oxidoreductases: Applications to seco-Duocarmycins Targeting the Thioredoxin System” (ACS Central Science, 2023)
Where two headings read alike, the source gives them in different places.

Test system: panel of 140 standard cancer cell lines
Experiment: ProliFiler-140 cancer cell line screen (CellTiterGlo, 72 h)
Format: cell-based
Conditions: read-out: IC50 [M] (ProliFiler-140)
Protocol: Incubations were performed for 72 h before automated viability readout with CellTiterGlo (Figure 8).
End of Figure S11 (part 5 of 5): ProliFiler-140 cancer cell line screening for cytotoxicity of the prodrugs.
8-data-point dose response curves from CellTiter-Glo® viability readout.
ProliFiler-140 cell line panel part V

COc1cccc2c1C(=O)c1c(O)c3c(c(O)c1C2=O)C[C@@](O)(C(=O)CO)C[C@@H]3O[C@H]1C[C@H](N)[C@H](O)[C@H](C)O1 [doxorubicin, reference compound]
IC50 (MCAS (Ovary), listed as Dox): 1.13e-07 M
IC50 (MCAS (Ovary)): 1.1e-07 M
IC50 (MDA MB 435 (Skin), listed as Dox): 4.83e-07 M
IC50 (MDA-MB-468 (Breast), listed as Dox): 4.71e-08 M
IC50 (MEC-1 (Blood), listed as Dox): 7.33e-08 M
IC50 (MKN-1 (Stomach), listed as Dox): 5.25e-08 M
IC50 (MOLM-13 (Blood), listed as Dox): 2.12e-08 M
IC50 (MV4-11 (Blood), listed as Dox): 4.26e-09 M
IC50 (Mia PaCA 2 (Pancreas), listed as Dox): 7.4e-08 M
IC50 (NCI-H82 (Lung), listed as Dox): 6.24e-07 M
IC50 (NCI-H292 (Lung), listed as Dox): 7.17e-08 M
IC50 (NCI-H838 (Lung), listed as Dox): 1.51e-07 M
IC50 (NCI-H1563 (Lung), listed as Dox): 5.43e-07 M
IC50 (NCI-H1573 (Lung), listed as Dox): 2.97e-06 M
IC50 (NCI-H1703 (Lung), listed as Dox): 9.24e-08 M
IC50 (NCI-H1838 (Lung), listed as Dox): 2.52e-07 M
IC50 (NCI-H2110 (Lung), listed as Dox): 3.55e-08 M
IC50 (NCI-H2110, NCI-H2110 (Lung)): 3.6e-08 M
IC50 (NCI-H2286 (Lung), listed as Dox): 4.39e-08 M
IC50 (OCI-AML5 (Blood), listed as Dox): 3.09e-08 M
IC50 (OCI-LY19 (Blood), listed as Dox): 5.5e-09 M
IC50 (OPM-2 (Blood), listed as Dox): 2.4e-07 M
IC50 (OV56, OV56 (Ovary)): 2.02e-07 M
IC50 (OVCAR-3 (Ovary), listed as Dox): 3.73e-07 M
IC50 (OVK18 (Ovary), listed as Dox): 3.4e-08 M
IC50 (OVK18, OVK18 (Ovary)): 3.42e-08 M
IC50 (P31/FUJ (Blood), listed as Dox): 1.02e-07 M
IC50 (PANC-1 (Pancreas), listed as Dox): 8.01e-07 M
IC50 (PC3 (Prostate), listed as Dox): 7.4e-07 M
IC50 (PC3 (Prostate)): 7.38e-07 M
IC50 (PC-9 (Lung), listed as Dox): 1.92e-07 M
IC50 (PC-9 (Lung)): 1.9e-07 M
IC50 (RERF-LC-Ad2, RERF-LC-Ad2 (Lung)): 4.6e-07 M
IC50 (RERF-LC-MS (Lung), listed as Dox): 1.7e-07 M
IC50 (RERF-LC-MS (Lung)): 1.74e-07 M
IC50 (RKO (Colon), listed as Dox): 9.9e-08 M
IC50 (RKO (Colon)): 9.86e-08 M
IC50 (RPMI 8226 (Blood), listed as Dox): 8.8e-08 M
IC50 (SCH (Stomach), listed as Dox): 1.38e-07 M
IC50 (SCH (Stomach)): 1.4e-07 M
IC50 (SK-BR-3 (Breast), listed as Dox): 1.28e-07 M
IC50 (SK-LU-1 (Lung), listed as Dox): 2.67e-07 M
IC50 (SK-MEL-3 (Skin), listed as Dox): 5.12e-07 M
IC50 (SK-N-FI (Brain), listed as Dox): 1.4e-06 M
IC50 (SK-N-MC (Brain), listed as Dox): 1.47e-08 M
IC50 (SK-N-SH (Brain), listed as Dox): 9.82e-08 M
IC50 (SK-OV3 (Ovary), listed as Dox): 1.8e-07 M
IC50 (SNU-1 (Stomach), listed as Dox): 5.88e-08 M
IC50 (SNU-216, SNU-216 (Stomach)): 3.9e-07 M
IC50 (SNU-840, SNU840 (Ovary)): 1.33e-07 M
IC50 (SU-DHL-5 (Blood), listed as Dox): 9.15e-09 M
IC50 (SW-1783 (Brain), listed as Dox): 3e-07 M
IC50 (T84 (Colon), listed as Dox): 1.4e-06 M
IC50 (T84 (Colon)): 1.35e-06 M
IC50 (T-47D (Breast), listed as Dox): 4.35e-07 M
IC50 (U87MG (Brain), listed as Dox): 1.62e-07 M
IC50 (U118MG (Brain), listed as Dox): 2.6e-07 M
IC50 (U251MG (Brain), listed as Dox): 7.84e-07 M
